The source of these data is ChEMBL document CHEMBL1201862, “PubChem BioAssay data set” (2004).

Test systems include ACHN; DU-145; HCT-116; HL-60; HOP-62; KM12; MDA-N; NCI-H23; OVCAR-3; PC-3; RXF 393; SF-268; SF-295; SK-MEL-28; U-251; UACC-257; MOLT-4; NCI-H226.
What all share (assay): DTP human tumour cell line panel, 48 h

Each structure is given as a SMILES string.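 All cell lines were grown in 96-well plates and treated with compound for 48 hours. GI50: concentration for 50% inhibition of growth.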 Activity calls are given as the source filed them. No stated cut-off is given here; in the data, active = GI50 up to about 1.1 µM and inactive = higher. Starred links: 1 amine or outer side, 2 acyl side, 3 side chain; linkers in the order of their positions; H or OH if unused. Positions of bridges follow the written chain, without caps; N, C: chain ends. Non-standard residues stand in square brackets, D forms with d. Residues, ends and D or L forms follow the SMILES beside them. Chains are numbered I, II in the order given. ξ: configuration not given here. X42 = N=C(N)NCCC[C@H](NC(=N)CCCCCCC(=N)N[C@@H](CCCNC(=N)N)C(=O)[*:2])C(=O)[*:1]; Oic(3aξ,7aξ) = O=C(O)[C@@H]1CC2CCCCC2N1; Igl = N[C@H](C(=O)O)C1Cc2ccccc2C1; Hyp = O=C(O)[C@@H]1C[C@@H](O)CN1 Some results are limits rather than exact numbers.

As a reminder, the GI50 is the concentration giving 50% growth inhibition.

As for `Cc1cc2c(SCc3ccccc3Cl)nc(N)nc2nc1C`, the GI50 in the assay with ACHN, in the assay with DU-145, with HCT-116, with HL-60, with HOP-62 and with KM12 was > 100 µM (inactive) in each case. Also, the GI50 in the assay with MDA-N is > 100 µM (inactive); in the assay with NCI-H23, > 100 µM (inactive); in the assay on OVCAR-3, > 100 µM (inactive); in the assay on PC-3, > 100 µM (inactive); in the assay on RXF 393, > 100 µM (inactive); in the assay with SF-268, 65.5 µM (inactive). For the same compound, the GI50 is 97.5 µM (inactive) in the assay on SF-295, > 100 µM (inactive) in the assay with SK-MEL-28, > 100 µM (inactive) with U-251 and > 100 µM (inactive) with UACC-257.
Turning to `Nc1nc(-c2cccs2)cs1`, the GI50 was 98.6 µM (inactive) with ACHN; > 100 µM (inactive) in the assay with DU-145; 56.8 µM (inactive) in the assay on HCT-116; > 100 µM (inactive) in the assay on HL-60; > 100 µM (inactive) in the assay on HOP-62; 81.7 µM (inactive) in the assay on KM12. Further, the GI50 in the assay with MDA-N is 45.7 µM (inactive); in the assay on NCI-H23, > 100 µM (inactive); with OVCAR-3 it was > 100 µM (inactive); in the assay with PC-3, 67.9 µM (inactive); in the assay on RXF 393, > 100 µM (inactive); in the assay on SF-268, > 100 µM (inactive). The GI50 in the assay on SF-295 is 64.4 µM (inactive); in the assay with SK-MEL-28, > 100 µM (inactive); with U-251, 71.3 µM (inactive); in the assay on UACC-257 it was > 100 µM (inactive).
Consider `CC(=O)NC1C(Sc2ncn(C3OC(CO)C(O)C(O)C3NC(C)=O)n2)OC(CO)C(O)C1O` (stereo not given), for which the GI50 in the assay with ACHN, in the assay with DU-145, in the assay with HCT-116, in the assay on HL-60, in the assay on HOP-62 and with KM12 was > 100 µM (inactive) each time. Further, the GI50 in the assay with MDA-N, in the assay on MOLT-4, in the assay on NCI-H23, with OVCAR-3, in the assay with PC-3 and with RXF 393 was > 100 µM (inactive) throughout. In addition, the GI50 with SF-268, in the assay on SF-295, with SK-MEL-28, in the assay on U-251 and with UACC-257 was > 100 µM (inactive) throughout.
Regarding `CCCSc1ccc2[nH]c(N3C(=O)/C(=C/c4ccccc4)N=C3c3ccccc3)cc2c1`, the GI50 in the assay with ACHN is 39.2 µM (inactive); in the assay with DU-145, 35.6 µM (inactive); in the assay with HCT-116, 22.4 µM (inactive); in the assay with HL-60, 12.1 µM (inactive); in the assay with KM12 it was 15.1 µM (inactive); in the assay on MDA-N it was 10.2 µM (inactive). Besides, the GI50 in the assay with MOLT-4 is 16.3 µM (inactive); in the assay with NCI-H23 it was 23.5 µM (inactive); in the assay on PC-3 it was 23.7 µM (inactive); with RXF 393 it was 20 µM (inactive); with SF-268, 18.4 µM (inactive); with SK-MEL-28, 32.4 µM (inactive). Moreover, the GI50 in the assay on UACC-257 is 17 µM (inactive).
On to `N#Cc1c(-c2ccc([N+](=O)[O-])cc2)cc(-c2ccc(Nc3ccnc4cc(C(F)(F)F)ccc34)cc2)nc1N`, for which the GI50 in the assay on ACHN was 29.6 µM (inactive); in the assay with DU-145, 13.1 µM (inactive); in the assay with HCT-116, 6.92 µM (inactive); in the assay on HOP-62, 21.3 µM (inactive); in the assay on KM12 it was 7.19 µM (inactive); with MDA-N it was 9.77 µM (inactive). The GI50 with MOLT-4 is 4.34 µM (inactive); with NCI-H226 it was > 48.3 µM (inactive); in the assay with NCI-H23, 23.2 µM (inactive); in the assay with OVCAR-3 it was 12.9 µM (inactive); in the assay on PC-3, 18.9 µM (inactive); in the assay with RXF 393, 19.1 µM (inactive). The GI50 is 33 µM (inactive) in the assay with SF-268; 15.9 µM (inactive) in the assay on SF-295; 25.5 µM (inactive) in the assay on SK-MEL-28; 6.34 µM (inactive) in the assay with U-251; > 50 µM (inactive) in the assay on UACC-257.
`COC(=O)C12CCCN1CCC2`: the GI50 in the assay on ACHN, with DU-145, in the assay on HCT-116, in the assay with HOP-62, in the assay on KM12 and with MDA-N was > 100 µM (inactive) each time. Further, the GI50 with MOLT-4, in the assay on NCI-H226, in the assay with NCI-H23, with OVCAR-3, in the assay on PC-3 and in the assay with RXF 393 was > 100 µM (inactive) throughout. In addition, the GI50 in the assay with SF-268, with SF-295, in the assay on SK-MEL-28, in the assay with U-251 and with UACC-257 was > 100 µM (inactive) each time.
`N#CC1CNC(N)NC1N` (stereo not given): the GI50 in the assay with ACHN, in the assay with DU-145, in the assay with HCT-116, in the assay with HL-60, in the assay with HOP-62 and in the assay on KM12 was > 100 µM (inactive) throughout. Also, the GI50 with MDA-N, in the assay on NCI-H226, in the assay on NCI-H23, in the assay with OVCAR-3, in the assay on PC-3 and with RXF 393 was > 100 µM (inactive) throughout. Also, the GI50 in the assay with SF-268, with SF-295, in the assay on SK-MEL-28, in the assay with U-251 and with UACC-257 was > 100 µM (inactive) in each case.
With `N=C(N)NCCC[C@H](NC(=O)[C@@H]1CC2CCCCC2N1C(=O)[C@@H](NC(=O)[C@H](CO)NC(=O)[C@@H](NC(=O)CNC(=O)[C@@H]1CCCN1C(=O)[C@H](CCCNC(=N)N)NC(=O)[C@H](CCCNC(=N)N)NC(=N)CCCCCCC(=N)N[C@@H](CCCNC(=N)N)C(=O)N[C@@H](CCCNC(=N)N)C(=O)N1CCC[C@H]1C(=O)N1C[C@H](O)C[C@H]1C(=O)NCC(=O)N[C@H](C(=O)N[C@@H](CO)C(=O)N[C@H](C(=O)N1C2CCCCC2C[C@H]1C(=O)N[C@@H](CCCNC(=N)N)C(=O)O)C1Cc2ccccc2C1)C1Cc2ccccc2C1)C1Cc2ccccc2C1)C1Cc2ccccc2C1)C(=O)O` (stereo not given in full) (I: RP[Hyp]G[Igl]S[Igl][Oic(3aξ,7aξ)]R-OH / II: RPG[Igl]S[Igl][Oic(3aξ,7aξ)]R-OH; linker I:N-II:N via X42), the GI50 in the assay with ACHN is 1.91 µM (inactive); with DU-145 it was 1.64 µM (inactive); with HCT-116 it was 4.38 µM (inactive); in the assay with HL-60 it was 0.15 µM (active); in the assay on HOP-62, 2.23 µM (inactive); in the assay with KM12 it was 2.07 µM (inactive). Further, the GI50 is 2.08 µM (inactive) in the assay with MDA-N; 0.413 µM (active) in the assay on MOLT-4; 1.92 µM (inactive) with NCI-H23; 1.79 µM (inactive) with OVCAR-3; 1.62 µM (inactive) in the assay with PC-3; 1.34 µM (inactive) in the assay with RXF 393. Also, the GI50 in the assay on SF-268 is 1.92 µM (inactive); in the assay on SF-295, 1.86 µM (inactive); in the assay with SK-MEL-28, 2.01 µM (inactive); with U-251 it was 2.48 µM (inactive); in the assay with UACC-257, 4.15 µM (inactive).
